The values below come from ChEMBL document CHEMBL1153301, “Identification and SAR of novel diaminopyrimidines. Part 1: The discovery of RO-4, a dual P2X(3)/P2X(2/3) antagonist for the treatment of pain” (Bioorg Med Chem Lett, 2009).

As usually defined, the IC50 is the concentration that gives 50% inhibition.

Experiment [1] concerns the target T1, P2X2/P2X3 heterotrimeric receptor (Homo sapiens, UniProt P56373+Q9UBL9).
T1 sequence (Q9UBL9 whole entry): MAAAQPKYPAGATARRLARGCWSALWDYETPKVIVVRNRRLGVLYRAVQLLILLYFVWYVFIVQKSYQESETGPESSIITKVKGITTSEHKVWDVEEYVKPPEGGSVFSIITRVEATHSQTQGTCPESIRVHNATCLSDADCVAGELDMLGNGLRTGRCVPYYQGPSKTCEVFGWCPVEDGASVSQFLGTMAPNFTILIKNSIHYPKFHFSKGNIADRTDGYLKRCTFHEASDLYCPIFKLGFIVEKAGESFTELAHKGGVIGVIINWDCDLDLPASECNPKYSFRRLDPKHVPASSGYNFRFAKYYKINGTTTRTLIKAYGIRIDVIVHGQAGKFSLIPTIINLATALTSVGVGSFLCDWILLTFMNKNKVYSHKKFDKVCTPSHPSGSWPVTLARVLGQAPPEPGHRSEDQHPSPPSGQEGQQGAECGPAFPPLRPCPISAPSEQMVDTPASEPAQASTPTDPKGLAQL
T1 sequence (P56373 whole entry): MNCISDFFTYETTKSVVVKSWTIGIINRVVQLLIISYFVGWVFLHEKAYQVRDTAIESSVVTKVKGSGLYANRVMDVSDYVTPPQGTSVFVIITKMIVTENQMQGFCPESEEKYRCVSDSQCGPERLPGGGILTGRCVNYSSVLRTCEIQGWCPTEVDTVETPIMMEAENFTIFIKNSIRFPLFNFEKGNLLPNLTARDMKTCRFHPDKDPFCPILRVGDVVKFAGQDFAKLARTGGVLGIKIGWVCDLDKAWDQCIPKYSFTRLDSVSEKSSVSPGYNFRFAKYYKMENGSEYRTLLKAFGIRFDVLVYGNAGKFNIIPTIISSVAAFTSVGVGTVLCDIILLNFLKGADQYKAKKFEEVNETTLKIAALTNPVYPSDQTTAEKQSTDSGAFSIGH
The experiment can be described thus: Antagonist activity at human recombinant P2X2/3 receptor expressed in human 1321N1 cells by FLIPR assay. In kind it is functional, cell-based.

Another experiment deals with T2, P2X purinoceptor 3 (Rattus norvegicus, UniProt P49654).
T2 sequence (P49654 whole entry): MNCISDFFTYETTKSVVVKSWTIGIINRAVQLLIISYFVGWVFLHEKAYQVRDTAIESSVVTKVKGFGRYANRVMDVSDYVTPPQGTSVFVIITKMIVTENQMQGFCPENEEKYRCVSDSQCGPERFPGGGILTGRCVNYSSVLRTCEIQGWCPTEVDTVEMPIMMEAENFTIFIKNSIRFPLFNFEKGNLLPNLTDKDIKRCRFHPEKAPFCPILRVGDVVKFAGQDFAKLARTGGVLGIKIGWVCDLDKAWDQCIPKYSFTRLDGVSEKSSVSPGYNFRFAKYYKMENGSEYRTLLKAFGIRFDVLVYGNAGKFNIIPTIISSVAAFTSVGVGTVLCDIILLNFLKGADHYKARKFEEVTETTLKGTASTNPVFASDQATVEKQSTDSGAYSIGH
The experiment can be described thus: Antagonist activity at rat recombinant P2X3 receptor expressed in CHO cells by FLIPR assay.

In the case of `COc1ccc(C(C)C)c(Oc2cnc(N)nc2N)c1`, the results for the IC50 (in experiment [1]; on P2X purinoceptor 3) were 158 nM and 398 nM, respectively.
As for `COc1cc(C(C)C)c(Oc2cnc(N)nc2N)cc1C`, the figures for the IC50 (in experiment [1]; at P2X purinoceptor 3) were 398 nM and 100 nM, respectively.
`COc1cc(C(C)C)c(Oc2cnc(N)nc2N)cc1Cl`: the values for the 50% inhibitory concentration (IC50) (in experiment [1]; at P2X purinoceptor 3) were 100 nM and 25.1 nM, respectively.
Take `COc1cc(C(C)C)c(Oc2cnc(N)nc2N)cc1C#N`: the IC50 in experiment [1] is 2510 nM; on P2X purinoceptor 3 it was 631 nM.
As to `COc1cc(Cc2cnc(N)nc2N)c(C2CCC2)cc1OC`, the IC50 (in experiment [1]; on P2X purinoceptor 3) was more than 10000 nM in each case.
As to `COc1cc(C(C)C)c(C(O)c2cnc(N)nc2N)cc1OC` (centres undefined), the IC50 (in experiment [1]; at P2X purinoceptor 3) was more than 10000 nM each time.
Regarding `COc1cc(C(=O)c2cnc(N)nc2N)c(C(C)C)cc1OC`, the IC50 (in experiment [1]; at P2X purinoceptor 3) was more than 10000 nM in each case.
As for `COc1cc(C(C)C)c(Oc2cnc(N)nc2N)cc1S(C)(=O)=O`, the IC50 in experiment [1] was 1000 nM; at P2X purinoceptor 3, 100 nM.
On to `COc1cc(C(C)C)c(Oc2cnc(N)nc2N)cc1-c1ncc[nH]1`, for which the half-maximal inhibitory concentration (IC50) in experiment [1] is 631 nM; at P2X purinoceptor 3, 158 nM.
For the molecule `COc1cc(C(C)C)c(Oc2cnc(N)nc2N)cc1C1=NCCN1`, the concentration for half-maximal inhibition (IC50) (in experiment [1]; on P2X purinoceptor 3) was more than 10000 nM throughout.
Take `COc1cc(Oc2cnc(N)nc2N)c(C(C)C)cc1I`: the half-maximal inhibitory concentration (IC50) in experiment [1] was 398 nM; on P2X purinoceptor 3, 39.8 nM.
Consider `COc1cc(C(C)C)c(Oc2cnc(N)nc2N)cc1C(C)C`, for which the IC50 was 2000 nM in experiment [1] and 501 nM on P2X purinoceptor 3.
For the molecule `COc1cc(Cc2cnc(N)nc2N)c(C2CC2)cc1OC`, the concentration for half-maximal inhibition (IC50) in experiment [1] is more than 10000 nM; on P2X purinoceptor 3 it was 1260 nM.
With `COc1cc(Cc2cnc(N)nc2N)c(CC(C)C)cc1OC`, the IC50 was 10000 nM in experiment [1] and more than 10000 nM at P2X purinoceptor 3.
For `CCc1cc(OC)c(OC)cc1Cc1cnc(N)nc1N`, the half-inhibitory concentration (IC50) in experiment [1] is more than 10000 nM.
In the case of `COc1cc(Cc2cnc(N)nc2N)c(C(C)C)cc1OC`, in experiment [1], the IC50 is 2000 nM.
With `CCc1cc(OC)c(OC)cc1Oc1cnc(N)nc1N`, the figures for the half-maximal inhibitory concentration (IC50) (in experiment [1]; at P2X purinoceptor 3) were 2000 nM and 158 nM, respectively.
`COc1cc(Oc2cnc(N)nc2N)c(C(C)C)cc1OC`: the IC50 on P2X purinoceptor 3 is 25.1 nM.
For the molecule `CC(C)c1ccccc1Oc1cnc(N)nc1N`, the IC50 in experiment [1] was 2000 nM; on P2X purinoceptor 3, 3980 nM.
Regarding `COc1cc(Oc2cnc(N)nc2N)c(C(C)C)cc1C#N`, the IC50 (in experiment [1]; on P2X purinoceptor 3) was more than 10000 nM each time.
Consider `COc1cc(C(C)C)c(Oc2cnc(N)nc2N)cc1F`, for which the results for the IC50 (in experiment [1]; at P2X purinoceptor 3) were 1580 nM and 3160 nM, respectively.
Take `COc1cc(C(C)C)c(Oc2cnc(N)nc2N)cc1-c1ccccc1`: the IC50 is 2510 nM in experiment [1] and 1000 nM on P2X purinoceptor 3.
The like results for `COc1cc(C(C)C)c(Oc2cnc(N)nc2N)cc1Br` were, in that order, 79.4 nM and 20 nM.
`C#Cc1cc(Oc2cnc(N)nc2N)c(C(C)C)cc1OC`: the IC50 in experiment [1] is 12.6 nM.
As for `COc1cc(Cc2cnc(N)nc2N)c(C(C)(C)C)cc1OC`, the half-maximal inhibitory concentration (IC50) in experiment [1] was more than 10000 nM.
For the molecule `COc1cc(C(C)C)c(Oc2cnc(N)nc2N)cc1C(=O)O`, the IC50 was 316 nM in experiment [1] and 158 nM on P2X purinoceptor 3.
The matching figures for `CCc1cc(Oc2cnc(N)nc2N)c(C(C)C)cc1OC`: 158 nM and 50.1 nM.
For `COc1ccc(Oc2cnc(N)nc2N)c(C(C)C)c1`, the IC50 in experiment [1] is 398 nM; on P2X purinoceptor 3, 1580 nM.
`CCc1cc(OC)c(OC)cc1CCc1cnc(N)nc1N`: the IC50 (in experiment [1]; at P2X purinoceptor 3) was more than 10000 nM throughout.
As for `COc1cc(C(C)C)c(Oc2cnc(N)nc2N)cc1C(N)=O`, the figures for the IC50 (in experiment [1]; at P2X purinoceptor 3) were 1580 nM and 100 nM, respectively.
Take `COc1cc(C(C)C)c(Oc2cnc(N)nc2N)cc1-c1nnn[nH]1`: the IC50 in experiment [1] was 316 nM; on P2X purinoceptor 3 it was 39.8 nM.
For `COc1cc(Oc2cnc(N)nc2N)c(C(C)C)cc1-c1ccc(F)cc1`, the 50% inhibitory concentration (IC50) in experiment [1] was 7940 nM; at P2X purinoceptor 3 it was 2510 nM.
For `COc1cc(Oc2cnc(N)nc2N)c(C(C)C)cc1Br`, the half-maximal inhibitory concentration (IC50) in experiment [1] is 316 nM; on P2X purinoceptor 3 it was 79.4 nM.
For the molecule `CCCc1cc(OC)c(OC)cc1Cc1cnc(N)nc1N`, in experiment [1], the IC50 was more than 10000 nM.
Consider `COc1cc(C)c(Cc2cnc(N)nc2N)cc1OC` [ORMETOPRIM], for which the concentration for half-maximal inhibition (IC50) (in experiment [1]; on P2X purinoceptor 3) was more than 10000 nM each time.
